PMC3974779, “Pterostilbene-Isothiocyanate Conjugate Suppresses Growth of Prostate Cancer Cells Irrespective of Androgen Receptor Status” (PLoS ONE, 2014)

Columns and labels:
p-ERK in PC-3 cells = assay: Immunoblot of ERK phosphorylation; type: cell-based, human; conditions: 24 h
Protocol: (§1) The whole-cell lysates were prepared as described previously in immunoprecipitation (IP) buffer containing 50 mM Tris-HCl (pH 8.0), 150 mM NaCl, 5 mM EDTA, and 1% Triton X-100. Protein aliquots of 500 μg were then incubated overnight at 4°C using 2 μg of antibody directed against AR. The Protein A-Cl Agarose beads were then added and further incubated for 6 h at 4°C. The immunoprecipitates were washed four times with the IP buffer and the immunocomplexes were recovered by boiling in SDS sample buffer. Finally the western blot was carried out using anti-AR, anti-SRC-1 and anti-GRIP-1 antibodies (Santa Cruz, CA, USA). For western blot analysis, the cell lysates were prepared after harvesting them in lysis buffer. About 40 μg of total protein was electrophoresed by 12% SDS-PAGE, and the western blotting was carried out using standard protocol. In brief, the analyzed proteins were transferred to nylon membranes. The blots were then blocked with TBST buffer (20 mM Tris-Cl, pH 7.5, 150 mM sodium chloride, 0.05% Tween-20) containing 5% skim milk powder. They were then washed with TBST buffer and incubated overnight at 4°C with the same buffer containing appropriate amounts of primary antibodies: caspase-3, Bax, Bcl-2, Akt, p-Akt, ERK, p-ERK, AR, SRC-1, GRIP-1 (1∶500) and β-actin (1∶1000). The blots were then washed and incubated with anti-rabbit secondary antibody (1∶20,000) conjugated with horseradish peroxidase (HRP). Color development was performed in the dark by using an ECL kit (Amersham, GE Healthcare, Buckinghamshire, UK). The developed blots were subjected to densitometric analysis by ImageJ 1.43 software (NIH, USA) using β-actin as internal control.
(§2) The siRNAs against human Akt and ERK and control siRNA were purchased commercially from Santa Cruz Biotechnology (USA). The LNCaP and PC-3 PCa cells were transfected with siRNAs (at a final concentration of 100 nM) using polyfect transfection reagent (Qiagen, CA, USA) according to manufacturer’s instructions. After 24 h of transfection, the cells were washed properly and replaced with fresh medium. The cells were then treated with 20 μM conjugate for 24 h, and finally protein lysates were prepared on completion of treatment. The levels of p-Akt, p-ERK and cleaved caspase-3 expressions were detected by Western blot analysis.

AR in LNCaP cells = assay: Immunofluorescence staining of endogenous AR; type: cell-based, human; conditions: varying doses of conjugate, 20 μM RESV, DHT
Protocol: The cells were then incubated with AR rabbit polyclonal antibody diluted 1∶200 in blocking buffer for 1 h at RT. Finally, the cells were washed with PBS and incubated with FITC-labelled anti-rabbit secondary antibody diluted 1∶1000 in blocking buffer for 30 min at room temperature. The cells were then observed under a fluorescence microscope (Zeiss, Axiovert 25, Germany).

LNCaP cells = assay: MTT cell death with/without p53 inhibitor PFT-α; type: cell-based, human; conditions: 20 and 40 μM conjugate 24 h, 20 μM PFT-α pre-treatment
Description: Since there was no significant difference in the number of apoptotic cells between conjugate treated LNCaP (wild type p53) and PC-3 (p53 null) cells (p<0.05), it was intriguing to check if p53 has any role in conjugate induced apoptosis of PCa cells. For this study we employed a pharmacological approach using specific wild type p53 inhibitor, pifithrin-α (PFT-α). PFT-α is a small molecule that binds to the DNA binding domain of p53, thereby inhibiting its transcriptional activity. For our experiment the LNCaP cells were pre-treated with 20 μM PFT-α for 2 h prior to the addition of 20 and 40 μM of conjugate for next 24 h. Subsequently the drug treated cells were used to check caspase-3 activity and cell death by immunoblot analysis (Fig. 4A) and MTT assay (Fig. 4B) respectively. […] Next we determined the effect of p53-inhibition on conjugate induced cell death by using MTT assay.

[1] = target: T1, AR nuclear localization in LNCaP cells (Homo sapiens, UniProt P10275); assay: GFP-AR nuclear localization; type: cell-based; conditions: 10 and 20 μM with 10 nM DHT
T1 construct: expressed in transfected cells; host or cells: LNCaP and PC-3
Protocol: (§3) For localization studies, pEGFP-AR plasmid was transfected to LNCaP and PC-3 cells (300 ng/10^5 cells).

[2] = target: T2, AR nuclear localization in PC-3 cells (Homo sapiens, UniProt P10275); assay: GFP-AR nuclear localization; type: cell-based; conditions: PC-3, 10 and 20 μM with 10 nM DHT
T2 construct: expressed in transfected cells; host or cells: LNCaP and PC-3
Protocol: as §3

[3] = system: cleaved caspase-3 in PC-3 cells; assay: Akt/ERK siRNA silencing, cleaved caspase-3 immunoblot; type: cell-based, human
Protocol: as §2
Figure 5 Differential role of PI3K/Akt and MAPK/ERK pathways in conjugate induced apoptosis of prostate cancer cells. Effects of siRNA mediated silencing of Akt and ERK on conjugate-induced apoptosis of (A) PC-3 and (B) LNCaP cells. LNCaP and PC-3 PCa cells were transfected with siRNAs (at a final concentration of 100 nM) using polyfect transfection reagent. After 24 h of transfection the cells were treated with 20 μM conjugate and allowed to grow for another 24 h. The cell lysates were prepared and the level of p-Akt, p-ERK and cleaved caspase-3 proteins were detected by immunoblot analysis. The histogram on the right panel of each figure represents densitometric analyses of the image data and expressed as percent of control where the results are mean ± SEM of three independent experiments. *and # represents statistically significant difference with respect to control and 20 μM conjugate treated groups respectively at p<0.05.

p-ERK in LNCaP cells = assay: Immunoblot of ERK phosphorylation; type: cell-based, human; conditions: highest dose, 24 h
Protocol: as §1, with “The blots were then washed and incubated with anti-rabbit secondary antibody (1∶20,000) conjugated with horseradish peroxidase (HRP). Color development was performed in the dark by using an ECL kit (Amersham, GE Healthcare, Buckinghamshire, UK). The developed blots were subjected to densitometric analysis by ImageJ 1.43 software (NIH, USA) using β-actin as internal control.” left out

[4] = system: AR protein in LNCaP cells; assay: Immunoblot of AR protein; type: cell-based, human; conditions: for inhibition of DHT induced AR protein levels: 10 nM DHT; for inhibition of AR protein levels: absence of DHT
Protocol: as §1

T1 sequence (P10275 whole entry): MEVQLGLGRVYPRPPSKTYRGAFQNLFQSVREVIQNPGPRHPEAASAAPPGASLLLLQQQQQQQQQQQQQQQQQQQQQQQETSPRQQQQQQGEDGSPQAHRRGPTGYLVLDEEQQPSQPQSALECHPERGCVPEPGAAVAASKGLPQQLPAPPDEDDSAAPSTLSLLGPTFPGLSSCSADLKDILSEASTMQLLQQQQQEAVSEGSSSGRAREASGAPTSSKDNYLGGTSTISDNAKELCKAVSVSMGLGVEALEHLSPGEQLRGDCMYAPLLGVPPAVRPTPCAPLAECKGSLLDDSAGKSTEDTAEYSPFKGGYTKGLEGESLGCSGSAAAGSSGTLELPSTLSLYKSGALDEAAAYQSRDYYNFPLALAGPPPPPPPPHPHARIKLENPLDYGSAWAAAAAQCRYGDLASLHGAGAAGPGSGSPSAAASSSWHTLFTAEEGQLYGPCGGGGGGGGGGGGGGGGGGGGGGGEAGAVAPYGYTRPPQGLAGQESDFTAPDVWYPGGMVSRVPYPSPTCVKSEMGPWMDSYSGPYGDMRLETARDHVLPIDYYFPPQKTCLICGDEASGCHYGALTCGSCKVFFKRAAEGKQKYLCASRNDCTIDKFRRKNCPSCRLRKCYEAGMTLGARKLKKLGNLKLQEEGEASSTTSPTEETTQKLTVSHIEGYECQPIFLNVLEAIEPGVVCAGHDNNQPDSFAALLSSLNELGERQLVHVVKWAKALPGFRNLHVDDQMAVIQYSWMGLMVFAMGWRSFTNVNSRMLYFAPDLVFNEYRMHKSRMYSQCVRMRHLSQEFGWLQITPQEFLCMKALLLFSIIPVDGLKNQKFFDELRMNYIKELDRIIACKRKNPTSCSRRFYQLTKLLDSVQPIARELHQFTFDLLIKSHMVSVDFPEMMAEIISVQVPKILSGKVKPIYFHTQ
T2 sequence (P10275 whole entry): as above

COc1cc(/C=C/c2ccc(O)c(/C=N/NC(N)=S)c2)cc(OC)c1 [conjugate, Pterostilbene-isothiocyanate conjugate]
reduction in level of p-ERK (p-ERK in PC-3 cells; PC-3, 20 μM): 1.3 folds
reduction in level of p-ERK (p-ERK in PC-3 cells; PC-3, 40 μM): 1.7 folds
AR immunofluorescence intensity (AR in LNCaP cells): almost complete abolition of fluorescent intensity
cell death with vs without PFT-α (LNCaP cells): did not differ significantly
DHT induced nuclear localization of AR [1]: significantly inhibited
DHT induced nuclear localization of AR [2]: significantly inhibited
increase in cleaved caspase-3 protein expression vs control ([3]; PC-3, 20 μM conjugate alone, 24 h): 3.7 folds
increase in cleaved caspase-3 protein expression vs control ([3]; PC-3, 20 μM conjugate in presence of Akt siRNA): 4.8 folds
increase in expression of caspase-3 vs control ([3]; PC-3, 20 μM conjugate in presence of ERK siRNA): 3.9 folds
inhibition of p-ERK (p-ERK in LNCaP cells): almost completely inhibited
inhibition of DHT induced AR protein levels ([4]; 10 μM): 1.1 folds
inhibition of AR protein levels ([4]; 10 μM): 2 folds
inhibition of DHT induced AR protein levels ([4]; 20 μM): 1.8 folds
inhibition of AR protein levels ([4]; 20 μM): 5 folds
